Experimental findings from ChEMBL document CHEMBL1201862, “PubChem BioAssay data set” (2004) are described below.

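The compound was tested at five concentrations on cells cultured in 96-well plates, with a 48-hour exposure period. GI50 is the concentration that inhibits growth by half.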 Calls of active or inactive are those of the source. Cut-off read from the data, not from the text of the source: active = GI50 up to about 1.1 µM and inactive = higher.

Common to all, as to test: NCI anticancer screen, dose series, 48 h
In experiment [1] the test system is ACHN.
The subject of experiment [2] is CCRF-CEM.
Experiment [3] deals with NCI-H460.
For experiment [4], the system named is SF-539.
Experiment [5] has as its system HL-60.
Experiment [6] has as its system Malme-3M.
Experiment [7] concerns SK-MEL-2.
Experiment [8] deals with EKVX.
Experiment [9] has as its system SW-620.
The subject of experiment [10] is HCT-15.
Experiment [11] concerns HOP-92.
Experiment [12] has as its system UACC-62.
The test system of experiment [13] is 786-0.
Experiment [14] has as its system HT-29.
Experiment [15] concerns HCC 2998.
In experiment [16] the test system is KM12.

For `COc1ccc(C2C(C(=O)O)=C(COC(C)=O)Oc3cc4c(cc32)OCO4)c(OC)c1` (stereo not drawn), the GI50 in experiment [1], in experiment [2], in [3], in [4], in [5] and in [6] was > 100 µM (inactive) each time. Besides, the GI50 in experiment [7] is > 100 µM (inactive); in [8] it was > 100 µM (inactive); in experiment [9], > 100 µM (inactive); in experiment [10], above 100 µM; in experiment [11], 90.6 µM (inactive); in experiment [12], > 100 µM (inactive). Further, the GI50 in [13] and in experiment [14] was > 100 µM (inactive) each time.

For `O=c1[nH]n2c(=O)cc[nH]c2c1-c1nnns1`, the GI50 in [1], in experiment [2], in [3], in [4], in experiment [5] and in experiment [6] was > 100 µM (inactive) in each case. Moreover, the GI50 in experiment [7] is > 100 µM (inactive); in experiment [15], > 100 µM (inactive); in experiment [8] it was > 100 µM (inactive); in experiment [9] it was > 100 µM (inactive); in experiment [10], above 100 µM; in [16], > 100 µM (inactive). In addition, the GI50 in [11], in experiment [13] and in [14] was > 100 µM (inactive) throughout.

In the case of `O=C(O)[C@H](NS(=O)(=O)c1ccc([N+](=O)[O-])cc1)c1ccccc1`, the GI50 in experiment [1], in [2], in experiment [3], in [4], in [6] and in experiment [7] was > 100 µM (inactive) in each case. Also, the GI50 was > 100 µM (inactive) in experiment [15]; > 100 µM (inactive) in experiment [8]; > 100 µM (inactive) in experiment [9]; above 100 µM in [10]; > 100 µM (inactive) in experiment [16]; > 100 µM (inactive) in [11]. Besides, the GI50 in [12], in experiment [13] and in [14] was > 100 µM (inactive) throughout.

Consider `COc1cc2c(cc1O)CCN[C@@]21CS[C@H]2c3c(OC(C)=O)c(C)c4c(c3C(COC1=O)N1C2C2NC(Cc3cc(C)c(OC)c(O)c32)[C@@H]1C#N)OCO4` (stereo partly drawn), for which the GI50 in [1], in experiment [2], in [3], in [4], in experiment [5] and in experiment [6] was < 0.01 µM (active) each time. Moreover, the GI50 in experiment [7] is < 0.01 µM (active); in [15], < 0.01 µM (active); in [8], < 0.01 µM (active); in experiment [9], < 0.01 µM (active); in experiment [10] it was below 0.01 µM; in experiment [12], < 0.01 µM (active). For the same molecule, the GI50 in experiment [13] and in [14] was < 0.01 µM (active) each time.

As to `O=C1C(c2ccc([N+](=O)[O-])cc2)=[N+]([O-])c2ccc([N+](=O)[O-])cc21`, the GI50 in experiment [1] is 32.2 µM (inactive); in experiment [2] it was 24.2 µM (inactive); in experiment [3], > 100 µM (inactive); in [4] it was 52.1 µM (inactive); in [5] it was 19.5 µM (inactive); in experiment [8], > 100 µM (inactive). In addition, the GI50 in experiment [9] was 39.4 µM (inactive); in experiment [16] it was 74 µM (inactive); in [12] it was 21 µM (inactive); in [13], > 100 µM (inactive); in experiment [14], 73.1 µM (inactive).

Regarding `COC(=O)C(=O)C(C(=O)C(=O)Nc1ccccc1C(N)=O)c1nc2ccc(C(=O)c3ccccc3)cc2nc1O` (stereo not drawn), the GI50 in experiment [1], in experiment [2], in [3], in experiment [4], in [6] and in experiment [7] was > 100 µM (inactive) throughout. The GI50 was > 100 µM (inactive) in experiment [15]; > 100 µM (inactive) in [8]; > 100 µM (inactive) in experiment [9]; above 100 µM in experiment [10]; 67.3 µM (inactive) in experiment [16]; 27.6 µM (inactive) in experiment [12]. Further, the GI50 in experiment [13] and in experiment [14] was > 100 µM (inactive) each time.

For the molecule `NCC1(N2CCOCC2)C2CCCC21CO` (stereo not drawn), the GI50 in [1], in [2], in experiment [3], in experiment [4], in [5] and in experiment [6] was > 100 µM (inactive) in each case. In addition, the GI50 in experiment [7] is > 100 µM (inactive); in experiment [15], > 100 µM (inactive); in experiment [9] it was > 100 µM (inactive); in [10] it was above 100 µM; in [16], > 100 µM (inactive); in experiment [11], > 100 µM (inactive). Further, the GI50 in experiment [13] and in experiment [14] was > 100 µM (inactive) in each case.

Regarding `c1ccc(N2N=NC3C4CC(C5c6ccccc6C45)C32)cc1` (stereo not drawn), the GI50 in [2] is 14 µM (inactive); in [3] it was 40.6 µM (inactive); in experiment [4], 78.5 µM (inactive); in [5], 19.1 µM (inactive); in experiment [6], 20.8 µM (inactive); in [8], 37.4 µM (inactive). Besides, the GI50 in experiment [9] was 36.6 µM (inactive); in experiment [10], 31.3 µM; in experiment [16], 39.3 µM (inactive); in experiment [11] it was 19.1 µM (inactive); in experiment [12] it was 28.1 µM (inactive); in experiment [13], 59 µM (inactive). Further, the GI50 in experiment [14] is 19.6 µM (inactive).

Consider `C/N=C(\N)c1ccc(NC(=N)c2ccc(C(=N)Nc3ccc(/C(N)=N/C)cc3)cc2)cc1`, for which the GI50 in experiment [1], in experiment [2], in experiment [3], in [4], in experiment [5] and in [6] was > 100 µM (inactive) throughout. Besides, the GI50 was > 100 µM (inactive) in experiment [7]; > 100 µM (inactive) in experiment [9]; above 100 µM in [10]; > 100 µM (inactive) in [16]; 76 µM (inactive) in experiment [11]; > 100 µM (inactive) in [12]. Besides, the GI50 in experiment [13] and in experiment [14] was > 100 µM (inactive) in each case.

As to `CCOc1cc2ccc3c4cc(OC)c(OC)cc4cnc3c2cc1OCC`, the GI50 in [1], in experiment [2], in experiment [3], in [4], in experiment [6] and in experiment [7] was > 100 µM (inactive) in each case. The GI50 was > 100 µM (inactive) in experiment [15]; > 100 µM (inactive) in experiment [8]; > 100 µM (inactive) in experiment [9]; above 100 µM in [10]; > 100 µM (inactive) in experiment [16]; > 100 µM (inactive) in experiment [12]. Further, the GI50 in experiment [13] and in [14] was > 100 µM (inactive) throughout.

As to `Nc1ccc(C(=O)CC2(O)C(=O)Nc3c(Cl)cc(Cl)cc32)cc1` (stereo not drawn), the GI50 in experiment [1] is 94.8 µM (inactive); in [2], 16.4 µM (inactive); in [3], > 100 µM (inactive); in experiment [4], > 100 µM (inactive); in [5], 24.9 µM (inactive); in experiment [6], > 100 µM (inactive). Further, the GI50 in experiment [7] is > 100 µM (inactive); in [15], > 100 µM (inactive); in experiment [8], > 100 µM (inactive); in experiment [9], 25.5 µM (inactive); in [10], 69.7 µM; in [16] it was 83 µM (inactive). For the same molecule, the GI50 in experiment [11], in experiment [13] and in experiment [14] was > 100 µM (inactive) throughout.

`Cn1cc2ccccc2c1-c1nc(F)nc(Oc2ccc3c(c2)CC[C@@H]2C3CC[C@]3(C)C(O)CCC23)n1` (stereo partly drawn): the GI50 is 18.5 µM (inactive) in experiment [1]; 5.78 µM (inactive) in [2]; 17.4 µM (inactive) in [4]; 18.3 µM (inactive) in experiment [6]; 16.5 µM (inactive) in experiment [7]; 19.9 µM (inactive) in [15]. Further, the GI50 in experiment [8] was > 10 µM (inactive); in experiment [9], 19.5 µM (inactive); in experiment [10], 14.6 µM; in [16] it was > 10 µM (inactive); in experiment [11], 18.4 µM (inactive); in experiment [13] it was 16.9 µM (inactive).

For the molecule `COc1cccc(NC(=O)CSc2nnc(-c3ccc(/N=C\c4ccc(Cl)cc4)cc3)o2)c1`, the GI50 is 16.4 µM (inactive) in experiment [1]; 26.6 µM (inactive) in [2]; 20.1 µM (inactive) in experiment [3]; 27.7 µM (inactive) in experiment [5]; 17.7 µM (inactive) in [6]; 19 µM (inactive) in experiment [7]. In addition, the GI50 was 36.7 µM (inactive) in [8]; 20.4 µM (inactive) in experiment [9]; 17.3 µM in [10]; 14.2 µM (inactive) in experiment [16]; 14.3 µM (inactive) in experiment [12]; 24.5 µM (inactive) in experiment [13]. In experiment [14], the GI50 was 15.6 µM (inactive).

Turning to `COc1cc(C(Cc2ccccc2)NC(C)=O)oc(=O)c1` (stereo not drawn), the GI50 in experiment [1], in [2], in experiment [3], in [5], in [6] and in experiment [7] was > 100 µM (inactive) each time. Moreover, the GI50 in [15] is > 100 µM (inactive); in experiment [8] it was > 100 µM (inactive); in [9], > 100 µM (inactive); in [10] it was above 100 µM; in experiment [16], > 100 µM (inactive); in experiment [11], > 100 µM (inactive). The GI50 in experiment [12], in experiment [13] and in [14] was > 100 µM (inactive) in each case.
